Measurements taken from patent US20010012854A1, “MULTICATALYTIC PROTEASE INHIBITORS FOR USE AS ANTI-TUMOR AGENTS” (priority 1997, published 2001).

Test system: Bcl-2-overexpressing Jurkat cells
Assay: Apoptosis in Bcl-2-overexpressing Jurkat cells (nuclear staining, western blot)
Type: cell-based, human
Experimental: b. Cell culture. Human Jurkat T and HL-60 cells were grown in RPMI 1640 (Life Technologies, Inc.) supplemented with 10% fetal calf serum (Sigma), 100 units/ml of penicillin, 100 μg/ml of streptomycin and 2mM L-glutamine (growth medium). Jurkat T. cells overexpressing the Bcl-2 oncoprotein or vector alone (provided by Dr. D. Johnson, University of Pittsburgh, Pa.) were grown in the same growth medium with […] G418. Human cancer cell lines of breast (MCF-7, MDA-MB-231), prostate (DU145, PC3) and osteosarcoma (U2-OS), obtained from American Type Culture Collection (ATCC. Rockville, Md.)), were also grown in the RPMI growth medium. Human oral (SCC-25; from ATCC) and brain (SNB-19; Welch, W. C., et al. In Vitro Cell. Dev. Biol., 31:610-616, 1995) cancer cell lines, and normal (WI-38) and SV40-transformed human fibroblasts (WI-38 VA-13; from ATCC) were grown in DMEM medium containing 10% fetal calf serum, penicillin, streptomycin and L-glutamine.
d. Flow cytometry nuclear staining and DNA fragmentation assays. DNA content analysis using flow cytometry was performed as described previously (Nicoletti, I., et al. J. Immunol. Methods 139:271-279, 1992). To assay nuclear morphology, cells were washed with PBS, fixed with 70% ethanol for 1 h, and stained with Hoechst 33258 (1 mM) for 30 min. The nuclear morphology of cells was visualized by fluorescence microscope (OLYMPUS BH2). DNA fragmentation was assayed as described previously (Grant, S., et al. Cancer Res. 52:6270-6278, 1992).
e. Whole cell extracts and western blot assay. To prepare whole cell extracts, cells were washed with PBS, and homogenized in lysis buffer (50 mM Tris, pH 8.0, 5 mM EDTA, 150 mM NaCl, 0.5% Nonidet P-40, 0.5 mM PMSF and 0.5 mM dithiothreitol). Following 30 min rocking at 4° C., the lysates were centrifuged and the supernatants were collected as whole cell extracts. The protein samples were then analyzed by sodium dodecyl sulfate-6% polyacrylamide gel electrophoresis (20-60 μg protein per lane) followed by the enhanced chemiluminescence Western blot assay using specific antibodies to CPP32, PARP, p21, p27 or RB.
It has been shown that overexpression of Bcl-2 oncoprotein inhibits apoptosis in many cell systems (Miura, M., et al., J. Cell 75: 653-660, 1993). Bcl-2 expression in human Jurkat T cells for inhibition of Compound A-induced apoptosis was investigated.

## CC(C)C[C@@H](C=O)NC(=O)[C@@H](CCCNC(=N)N[N+](=O)[O-])NC(=O)C(CCCCCCCCN1C(=O)c2ccccc2C1=O)C1CCCC1 (stereo partly drawn) [Compound A]
15 μM
  Effect of Bcl-2 overexpression on induced PARP cleavage and p112-115/RB production: failed to block cleavage of PARP and production of p112-115/RB
15 μM, 8 h
  Effect of Bcl-2 expression on induced apoptotic nuclear changes: did not inhibit the apoptotic nuclear changes
Bcl-2-overexpressing Jurkat, 30 μM, 3.5 h
  Cells exhibiting apoptosis-specific nuclear morphology: ~100%
